Measured values taken from patent US6984655B1, “Photodynamic therapy for selectively closing neovasa in eyeground tissue” (Meiji Seika Kaisha, Ltd., priority 2000, dated 2006).
Each block holds one compound with its values, some of them ahead of it.

Experiments:
[1] = tested on: vascular walls of retinal normal vascular vessels and choroidal neovascular vessels (CNV); experiment: infrared fluorescence fundus angiography of ICG (790 nm excitation) in monkeys having experimental CNV; type: in vivo, monkeys of the genus Macaca; conditions: for infrared fluorescence in CNV / infrared fluorescence in retinal normal vascular vessels: ICG 0.5 mg/kg iv
Excerpt: In these experiments, the time-dependent changes in the concentrations of ICG having distributed and remaining in the vascular walls of the retinal normal vascular vessels and in the vascular walls of the choroidal neovascular vessels (CNV) in the ocular fundus of the monkeys were examined by a process wherein a beam of laser light containing a light of 790 nm-wavelength (as emitted from a semiconductor type laser generator) was used as an excitation light, and wherein the changes in the intensity of the infrared fluorescence emitted from the ICG as excited within said vascular walls were continuously recorded by photographs by means of an infrared light fundus camera apparatus (of modified TCR 50-IA type, manufactured by Topcon Co., Japan) for the infrared fluorescence fundus angiography for diagnosing the ocular fundus, and wherein the photographed images of the fundus were observed visually.
In the same manner as in the above Test Example 1, the neovasculature lesions comprising the experimental choroidal neovascular vessels (CNV) were produced in the ocular fundi of monkeys of the genus Macaca, according to the modified Ryan's method.
An aqueous solution of ICG dissolved in distilled water for the injections at a concentration of 5.0 mg/ml of ICG was intravenously injected at a dose of ICG of 0.5 mg/kg at a vein in the lower limbs of the monkeys having the neovasculature lesions in the retina of the eye.
Immediately after the time of the intravenous injection of ICG, the ocular fundi of the monkeys were continuously observed under irradiation of the beam of laser light containing a light of 790 nm-wavelength by means of an infrared light camera apparatus (of a modified TCR 50-IA type, manufactured by Topcon Co.) for infrared fluorescence fundus the angiography for diagnosing the ocular fundus.
To these test monkeys was intravenously injected ICG at a dose of 1 mg/kg in the same way as in Test Example 3. Immediately after the time of the intravenous injection of ICG, the ocular fundi of the monkeys were continuously observed by means of an infrared light fundus camera apparatus (of modified TCR 50 type, manufactured by Topcon Co., Ltd.) for the infrared fluorescence fundus angiography for diagnosing the ocular fundus. The observation with the fundus camera was made under irradiation of the ocular fundi with the laser light containing a light of 790 nm-wavelength. There was recorded the time point at which the infrared fluorescence of ICG was eliminated entirely from the retinal normal vascular vessels.

[2] = tested on: vascular walls of retinal normal vascular vessels and choroidal neovascular vessels (CNV); experiment: infrared fluorescence fundus angiography after co-injection of ICG and NPe6 (Test Example 5); type: in vivo, monkeys of the genus Macaca; conditions: ICG 0.5 mg/kg co-injected with NPe6 0.5 mg/kg
Excerpt: The 664 nm-laser light as irradiated was irradiated at an irradiance of 0.68 W/cm^2 for 300 second so that the fluence was of 204 J/cm^2.

[3] = tested on: experimental choroidal neovascular vessels (CNV); conditions: optical microscope, pathological examination
Excerpt: In the experiments of this Test Example 2, there were used 31 neovasculature lesions chosen from among the neovasculature lesions which comprised the experimental choroidal neovascular vessels (CNV) as produced in the ocular fundi of the monkeys of the genus Macaca by the modified Ryan's method set out in the Test Example 1 above.
The 664 nm-laser light was irradiated for 300 seconds at a fluence of 204 J/cm^2.
The laser light was irradiated for 60 to 300 seconds at different fluences.
The 664 nm-laser light was irradiated at different fluences for 60 seconds or for 10 seconds. […]
After the treatment with the irradiation of 664 nm-laser light was terminated, the test monkeys having the neovasculature lesions, either treated or untreated, were fed for 1 week under routine feeding conditions. After the feeding for one week, the effects of the above treatments were judged by a fluorescence fundus angiography with fluorescein and by a fluorescence fundus angiography with indocyanine green (ICG). […] For the fluorescence fundus angiography with ICG, the ocular fundi of the monkeys were observed and diagnosed by means of SLO or by means of an infrared light fundus camera apparatus for the infrared ocular fundus angiography, after the intravenous injection of ICG. […]

[4] = tested on: ocular fundus tissue with choroidal neovascular vessels (CNV); experiment: fluorescence microscopy of cross-section samples of enucleated eyeballs; type: in vivo, monkeys of the genus Macaca; conditions: 20 mg/kg iv, eyeballs enucleated 65 to 70 minutes after injection, excitation 380 to 420 nm
Method: These cut pieces of the eyeballs were frozen in a bath of liquid nitrogen. Cross-section samples each having a thickness of 5 μm were prepared from the ocular fundus tissue region of the frozen pieces of the eyeballs.

[5] = tested on: vascular walls of retinal normal vascular vessels and choroidal neovascular vessels (CNV); experiment: fluorescence fundus angiography of NPe6 red fluorescence (488 nm excitation) in monkeys having experimental CNV; type: in vivo, monkeys of the genus Macaca; conditions: for time point at which red fluorescence was substantially entirely eliminated from retinal normal vascular vessels while CNV lesions continued to emit: Test Example 2
Excerpt: The detailed procedures of the above experiments are as follows. Thus, a beam of a laser light of 647 nm wavelenght as emitted from a krypton laser generator [Coherent Medical Laser generator, manufactured by Novua Omni Co.; having an output of 500 to 900 mW] was irradiated as a laser-irradiating spot of a diameter of 50 μm onto the ocular fundi of 8 mature monkeys of the genus Macaca (of body weights of 3.5 kg to 6.0 kg) for 0.1 seconds, according to a modification of the Ryan's method [Arch. Ophthalmol., vol 100; pp. 1804–1809 (1982)]. It is said that the resulting damage in the Bruch's membrane, which were incurred by the irradiation of the 647 nm laser light, is very effective for the incidence of ocular neovascular vessels. Thereby, there were induced the experimental choroidal neovascular vessels (abbreviated as CNV). The induced CNV are the neovascular vessels as branched from the choroidal normal vascular vessels in the ocular fundus. Such CNV have infiltrated in the subretinal space, namely the space between the sensory retina and choroids, to involve the occurrence of exudation, bleeding and retinal detachment. The formation of the neovasculature lesions comprising the CNV was confirmed by a process which comprised intravenously injecting fluorescein or indocyanine green to the so treated monkeys and subsequently carrying out the diagnosis method according to a fluorescence fundus angiography of the ocular fundus.
In the course of said irradiation of 488 nm laser light beam for 10 minutes, the images of the red fluorescence as emitted in the ocular fundus were recorded by photography on a video tape by means of a high-sensitivity television fundus camera apparatus. Thereafter, at intervals of 10 minutes, a beam of 488 nm laser light was repeatedly irradiated to the ocular fundus each for about one minute. At each of the irradiations of the 488 nm laser light beam, the images of the red fluorescence emitted from the vascular vessels of the ocular fundus were recorded on the video tape. […] The images of the fluorescence emitted from the ocular fundus vascular vessels were then reproduced from the recording video tape for the purpose of observation.
During this 10 minutes-irradiation of the 488 nm-laser light to the ocular fundi, the images of the red fluorescence emitted from the ocular fundi were recorded by photography on a video tape by means of a high-sensitivity television fundus camera.
During this irradiation of the 488 nm-laser light, the images of the red fluorescences emitted from the retinal normal vascular vessels and from the choroidal neovascular vessels were observed by an apparatus for the fluorescence ocular fundus angiography of the ocular fundus (namely, an infrared light fundus camera).

CD-1 (male) mice = experiment: acute toxicity test (LD50); type: in vivo
[6] = tested on: experimental choroidal neovascular vessels (CNV); experiment: PDT with NPe6 timed by prior ICG angiography (Test Example 4)
Method: To these test monkeys was intravenously injected ICG at a dose of 1 mg/kg in the same way as in Test Example 3. Immediately after the time of the intravenous injection of ICG, the ocular fundi of the monkeys were continuously observed by means of an infrared light fundus camera apparatus (of modified TCR 50 type, manufactured by Topcon Co., Ltd.) for the infrared fluorescence fundus angiography for diagnosing the ocular fundus. The observation with the fundus camera was made under irradiation of the ocular fundi with the laser light containing a light of 790 nm-wavelength. There was recorded the time point at which the infrared fluorescence of ICG was eliminated entirely from the retinal normal vascular vessels. The time-gap which was extended between the aforesaid time point as recorded for the entire elimination of the infrared fluorescence of IGC and the time of the intravenous injection of ICG was calculated in a unit of “minutes” or “second”, whereby it was estimated that said time-gap was 30 minutes. • (b) Time was allowed to pass until the infrared fluorescence of ICG was eliminated entirely from the neovasculature lesions in the ocular fundi of the test monkeys. […] The 664 nm-laser light as irradiated was irradiated at an irradiance of 0.57 W/cm2 for 180 seconds so that the fluence was of 102.6 J/cm^2. […]

[7] = 20 minutes after administration
[8] = about 7 to 8 minutes after injection
[9] = 0.5 mg/kg iv, 20 minutes after injection
[10] = 1.0 mg/kg iv, 30 minutes after injection
[11] = 20 mg/kg iv, 7.5 minutes after injection
[12] = 20 mg/kg iv, 20 minutes after injection
[13] = 20 mg/kg iv, 60 minutes after injection

infrared fluorescence in retinal normal vascular vessels [1, 7]: had decreased
infrared fluorescence in CNV [1, 8]: a slight but appreciable intensity
time-gap between intravenous injection and entire elimination of infrared fluorescence from retinal normal vascular vessels ([1]; ICG 1 mg/kg iv): 30 min
infrared fluorescence of ICG in retinal normal vascular vessels ([2]; 20 minutes after injection): decreased to a poor intensity
Compound: CC1(C)C(/C=C/C=C/C=C/C=C2\N(CCCCS(=O)(=O)O)c3ccc4ccccc4c3C2(C)C)=[N+](CCCCS(=O)(=O)[O-])c2ccc3ccccc3c21 [ICG, indocyanine green]
infrared fluorescence in CNV [1, 7]: increased to a prominent and appreciable intensity
infrared fluorescence in retinal normal vascular vessels [1, 8]: observed at a prominent and appreciable intensity
infrared fluorescence of ICG in vascular walls of CNV ([2]; 20 minutes after injection): retained at a prominent and apreciable intensity
infrared fluorescence of ICG in retinal normal vascular vessels [2, 8]: observed at a prominent and appreciable intensity

Compound: C=Cc1c(C)c2cc3nc(c(CC(=O)N[C@@H](CC(=O)[O-])C(=O)[O-])c4[nH]c(cc5nc(cc1[nH]2)C(C)=C5CC)c(C)c4C(=O)[O-])[C@@H](CCC(=O)[O-])[C@@H]3C.[Na+].[Na+].[Na+].[Na+] [NPe6, mono-L-aspartyl chlorin e6 tetra-sodium salt]
state of retinal and choroidal normal vascular vessels adjacent to the occluded CNV [3]: remaining intact or nearly intact
red fluorescence at CNV in cross-section samples [4]: observed confirmably at a significant intensity
red fluorescence at retinal normal vascular vessels in cross-section samples [4]: only a very slight degree of the red fluorescence
red fluorescence in cross-section samples of retinal parenchymal region [4]: almost not observable
red fluorescence in CNV [5, 9]: confirmably observed at a slight but appreciable intensity
red fluorescence in retinal normal vascular vessels [5, 9]: substantially entirely been eliminated and disappeared
time point at which red fluorescence was substantially entirely eliminated from retinal normal vascular vessels while CNV lesions continued to emit ([5]; 0.5 mg/kg iv): 20 min
red fluorescence in CNV [5, 10]: confirmed at a significant and appreciable intensity
red fluorescence in retinal normal vascular vessels [5, 10]: substantially entirely been eliminated
time point at which red fluorescence was substantially entirely eliminated from retinal normal vascular vessels while CNV lesions continued to emit ([5]; 1 mg/kg iv): 30 min
time point at which red fluorescence was substantially entirely eliminated from retinal normal vascular vessels while CNV lesions continued to emit ([5]; 2 mg/kg iv): 60 min
time point at which red fluorescence was substantially entirely eliminated from retinal normal vascular vessels while CNV lesions continued to emit ([5]; 10 mg/kg iv): 60 min
red fluorescence in vascular walls of CNV [5, 11]: observable slightly but detectable at its weak intensity
red fluorescence in vascular walls of retinal normal vascular vessels [5, 11]: appreciably observable at its prominent intensity
red fluorescence in CNV [5, 12]: remain at a higher and prominently observable intensity
red fluorescence in retinal normal vascular vessels [5, 12]: decreased to a lower and hardly detectable intensity
red fluorescence in CNV [5, 13]: observed at a high and prominent intensity
red fluorescence in retinal normal vascular vessels [5, 13]: never observable
time of peak NPe6 concentration in vascular walls of CNV after intravenous injection ([5]; monkeys with experimental CNV): about 20 minutes
permeation into normal parenchymal tissue of the ocular retina ([5]; monkeys, intravenous): never permeate
LD50 (CD-1 (male) mice): 164 mg/kg
number of treated neovasculature lesions whose CNV were successfully occluded ([6]; NPe6 1 mg/kg iv after ICG cleared, irradiation started 30 min, 0.57 W/cm2, 180 s, 102.6 J/cm^2, 3 lesions treated, judged after one week): 3
state of adjacent retinal normal vascular vessels, retinal parenchymal tissue and choroidal normal vascular vessels ([6]; NPe6 1 mg/kg iv, 664 nm-laser 102.6 J/cm^2, judged after one week): could remain intact
